Assay results as given in patent US9988371B2, “Benzimidazole analogues and related methods” (The Arizona Board of Regents, on Behalf of the University …, priority 2014, dated 2018).

How the values were obtained:
[1] = tested on: LC-2/ad cells (NSCLC expressing CCDC6-RET); assay: Growth curve proliferation assay, LC-2/ad cells; format: cell-based; settings: Homo sapiens, last day of growth curves
Procedure: FIG. 5: Effects exerted by indicated concentrations of Pz-1 or vehicle (NT: not treated) on proliferation of TT (human MTC cell line expressing RET/C634W), Lc-2/ad (human NSCLC expressing CCDC6-RET) and Nthy-ori-3-1 (thyroid non-transformed) cell lines. Data are the mean±SD (Standard Deviation) of one experiment performed in triplicate. Bottom, right) Growth inhibition IC50 of Pz-1 for the different cell lines: 95% CI (confidence intervals) are indicated in brackets. Cells were seeded in triplicate in 60-mm dishes and kept in 5% (Nthy-ori-3-1) or 10% (TT and Lc-2/ad) fetal calf serum. The day after plating, different concentrations of Pz-1 or vehicle were added to the medium and changed every 2-3 days. Cells were counted every 2-3 days and cell numbers were reported±SD (Standard Deviation). IC50 doses (with Confidence Intervals) were calculated through a curve fitting analysis from the last day of growth curves using the PRIZM software program (Graphpad Software Inc).
Nthy-ory-3-1 and TTcells were seeded in 60-mm dishes. […] Cells were counted every 2-3 days. […] Parental and RET/PTC-expressing Ba/F3 were kept in 10% fetal calf serum in 6-multi wells and counted every day for 4 consecutive days, changing media every 2 days. […] IC50 doses were calculated through a curve fitting analysis from the last day of growth curves using the PRISM software program (Graphpad Software Inc). […]

[2] = tested on: RET/C634Y transformed NIH3T3 fibroblasts; assay: NIH3T3 RET/C634Y tumors in nude mice; format: in vivo, BALB/c nu/nu mice; settings: 1.0, 3.0 or 10 mg/kg daily, oral gavage
Text: FIG. 8: Anti-tumorigenic activity of Pz-1 in nude mice implanted with RET/C634Y or HRAS(G12V) transformed NIH3T3 fibroblasts. […] Average tumor volume (±SD: standard deviations) is reported. NIH3T3 RET/C634Y (200,000 cells) or NIH3T3 HRAS/G12V (50,000 cells) were inoculated subcutaneously into dorsal portion (both sides) of 6-week-old female BALB/c nu/nu mice (n. 31 mice/cell line) (Jackson Laboratories, Bar Harbor, Me.). After 4 days, before tumors had appeared, animals were randomly assigned to receive Pz-1 (1.0, 3.0 or 10 mg/kg daily) (23 mice/cell line: 8 mice/group for 1.0 and 3.0 mg/kg daily doses and 7 mice for 10 dose mg/kg daily) or vehicle control (8 mice) by oral gavage. Tumor diameters were measured with calipers every 1-2 days. Tumor volumes (V) were calculated by the rotational ellipsoid formula and reported as average volumes±standard deviations. […]
TT cells (7.5×10^6/mouse) were inoculated subcutaneously into dorsal portions (both sides) of 39 SCID mice (Jackson Laboratories, Bar Harbor, Me.). […] Tumor diameters were measured with callipers every week. Tumor volumes (V) were calculated by the rotational ellipsoid formula: V=A×B^2/2 (A=axial diameter; B=rotational diameter) and reported as average volumes±standard deviations. […] Anti-tumorigenic activity of Pz-1 was also assessed in nude mice implanted with RET/C634Y or HRAS(G12V) transformed NIH3T3 fibroblasts. […]

Question: How did the IC50 [1] turn out when Cn1cc(-c2ccc3c(c2)ncn3-c2ccc(CC(=O)Nc3cc(C(C)(C)C)on3)cc2)cn1 [Pz-1, N-(5-(tert-butyl)isoxazol-3-yl)-2-(4-(5-(1-methyl-1H-pyrazol-4-yl)-1H-benzo[d]imidazol-1-yl)phenyl)acetamide] was run?
Answer: Its IC50 is 0.907 nM.

Question: And the “formation of tumors induced by RET cells” value [2]?
Answer: Its value is “totally prevented formation of tumors”.
